# pIC50: −log10 of the molar value.
# Target: T1, human mAChR M4 (Homo sapiens, UniProt P08173)
# T1 construct: expressed in transfected cells; host or cells: CHO-K1 (ATCC), co-transfected with chimeric G protein Gqi5
# T1 sequence (P08173 1-479): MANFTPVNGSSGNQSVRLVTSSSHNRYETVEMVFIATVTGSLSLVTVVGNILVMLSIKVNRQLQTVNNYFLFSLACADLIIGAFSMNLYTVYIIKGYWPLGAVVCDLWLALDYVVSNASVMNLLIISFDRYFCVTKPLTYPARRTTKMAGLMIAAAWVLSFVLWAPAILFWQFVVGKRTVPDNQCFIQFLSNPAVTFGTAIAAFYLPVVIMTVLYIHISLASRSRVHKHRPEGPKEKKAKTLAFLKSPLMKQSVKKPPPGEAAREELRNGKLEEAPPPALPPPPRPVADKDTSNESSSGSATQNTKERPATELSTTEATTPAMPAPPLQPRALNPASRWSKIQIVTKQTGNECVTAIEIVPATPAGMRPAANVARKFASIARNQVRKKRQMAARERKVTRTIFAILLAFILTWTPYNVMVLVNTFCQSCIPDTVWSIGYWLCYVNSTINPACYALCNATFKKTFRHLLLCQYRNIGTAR
# Assay: mAChR M4 cell-based functional assay (calcium flux, antagonism of EC80 acetylcholine response, M4/Gqi5/CHO-K1 cells)
# Details: for pIC50: decrease of the response elicited by an EC80 concentration of acetylcholine, CHO-K1 cells, Gqi5
# How it was run: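 CHO-K1 cells stably expressing human M4 with chimeric Gqi5, loaded with Fluo-4 AM; calcium flux read on FDSS. Compounds (10-point, 1:3 curves) added first, then EC20 acetylcholine at 143 s and EC80 at 268 s. IC50 from decrease of EC80 acetylcholine response, four-parameter logistic fit.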
pIC50,"remaining activity at 30 µM (CHO-K1, % ACh maximum at 30 μM, read-out: Human M4 Emin) [%]",Compound
8.51,–,"[2H]C([2H])([C@H]1CCOC(C)(C)C1)N1C[C@H]2C[C@H](Nc3ccc(-c4cccnc4C(F)(F)F)nn3)C[C@H]2C1 (single isomer, unassigned) [Compound 61]"
8.96,4,"[2H]C([2H])([C@@H]1CCOC(C)(C)C1)N1C[C@H]2C[C@H](Nc3ccc(-c4cccnc4C(F)(F)F)nn3)C[C@H]2C1 [Compound 62, (3aR,5s,6aS)-2-(((R)-2,2-dimethyltetrahydro-2H-pyran-4-yl)methyl-d2)-N-(6-(2-(trifluoromethyl)pyridin-3-yl)pyridazin-3-yl)octahydrocyclopenta[c]pyrrol-5-amine]"

# From patent US20240109873A1, “ANTAGONISTS OF THE MUSCARINIC ACETYLCHOLINE RECEPTOR M4” (Vanderbilt University, priority 2020, published 2024)
